# Laboratory results taken from US12410152B2, “Oxazole and thioazole-type cullin ring ubiquitin ligase compounds and uses thereof” (Proxygen GmbH, priority 2019, dated 2025).
# System: KBM7 WT cells (global proteome)
# Assay: Quantitative expression proteomics (TMT isobaric tagging), drug vs DMSO
# Type: cell-based, human
# Conditions: for number of proteins significantly downregulated (log2FC < -0.3), destabilized proteins / number of downregulated proteins known to be implicated in KBM7 proliferation (essential for KBM7 viability): KBM7 cells, 12 hours; for number of proteins significantly downregulated (log2FC < -0.3), destabilized proteins: ~10xEC50, 7,903 proteins quantified; for number of downregulated proteins known to be implicated in KBM7 proliferation (essential for KBM7 viability): essentiality from Hart et al. 2017
# Description: The mechanism by which the assayed molecules re-program a functional CRL4B complex based on the data shown could be that drug binding to CUL4B recruits a neo-substrate directly to the cullin backbone. Alternatively, drug binding could stabilize CUL4B function to boost time intervals where a functionally competent CUL4B complexes can be formed. Here, the word “functional” implies that the CUL4B backbone of this complex needs to be neddylated, and a CUL4B associated E2 ubiquitin-conjugating enzyme (UBE2G1) needs to be bound. FIG. 9 outlines one possible mechanism. Both predicted mechanisms of action would result in a functionally altered CRL4B complex, and thus an altered stability of drug-induced (neo-) substrates. In order to identify target proteins with a decreased abundance or, in other words, target proteins that become degraded by CRL4B after drug treatment, global proteome composition was measured using quantitative expression proteomics (TMT-labeling). In brief, KBM7 cells were drug treated for 12 hours, lysed, and subjected to isobaric tagging. Ensuing proteomics analysis quantified a total of 7,903 proteins at a minimum spectral count of 2. […] Data on essentiality are taken from Hart et al., G3, August 2017 (PMID: 28655737).
# 50×10^6 KBM7^WT cells per condition were collected, washed four times with ice-cold PBS, the supernatant aspirated and pellets snap-frozen in liquid N2. Each washed cell pellet was lysed separately in 40 μL of freshly prepared lysis buffer as previously described (see Mayor-Ruiz et al., Mol Cell 2019)
# Offline Fractionation via RP-HPLC at high pH and 2D-RP/RP Liquid Chromatography Mass Spectrometry were performed as previously described (see Mayor-Ruiz et al., Mol Cell 2019).
# Acquired raw data files were processed using the Proteome Discoverer 2.2.0 platform, utilizing the Sequest HT database search engine and Percolator validation software node (V3.04) to remove false positives with a false discovery rate (FDR) of 1% on peptide and protein level under strict conditions. Searches were performed with full tryptic digestion against the human SwissProt database v2017.06 with up to two allowed miscleavage sites. Oxidation (+15.9949 Da) of methionine was set as variable modification, whilst carbamidomethylation (+57.0214 Da) of cysteine residues and TMT 6-plex labelling of peptide N-termini and lysine residues were set as fixed modifications. Data was searched with mass tolerances of ±10 ppm and ±0.02 Da on the precursor and fragment ions, respectively. Results were filtered to include peptide spectrum matches (PSMs) with Sequest HT cross-correlation factor (Xcorr) scores of […] and high peptide confidence assigned by Percolator. MS^2 signal-to-noise values (S/N) values of TMT reporter ions were used to estimate peptide/protein abundance changes. PSMs with precursor isolation interference values of ≥ 50% and average TMT-reporter ion S/N≤10 were excluded from quantitation. Only unique peptides were used for TMT quantitation as well as for TOP3 label-free quantitation. Isotopic impurity correction and TMT channel-normalization based on total peptide amount were applied. For statistical analysis and p-value calculation, the integrated ANOVA hypothesis test was used. TMT ratios with p-values below 0.01 were considered as significant. Only proteins with >1 peptide detected and >1 unique peptide detected were considered for further analysis. For the calling of destabilized proteins, a log 2 fold change threshold (drug/DMSO) of −0.3 was applied.
# Comparison of overall proteome-wide changes in KBM7 cells treated with IC020772.1 (2.5 μM), IC021313.2 (7 μM) or T6938051 (3.5 μM) for 5 h and 12h, using quantitative proteomics based on isobaric tagging.
# The protein names in Table 4, Table 5 and Table 6 refer to the protein names as provided by HUGO Gene Nomenclature Committee (HGNC) database. […]
smiles,measurement,setting,value
Cc1ccc(C(=O)N2CSCC2C(=O)N=c2[nH]cc(C)s2)o1 (stereo not drawn) [Compound T6938051],"number of proteins significantly downregulated (log2FC < -0.3), destabilized proteins",,793
same,number of downregulated proteins known to be implicated in KBM7 proliferation (essential for KBM7 viability),,142
same,number of proteins with log2FC < −0.3,T6938051 vs DMSO,T6938051: 793 proteins
same,number of essential proteins among proteins with log2FC < −0.3,"T6938051 vs DMSO, essential = implicated in KBM7 proliferation",log2FC < −0.3 (142 essential proteins)
same,log2FC (T6938051/DMSO),"protein ABCF2 (accession Q9UG63-2), expression proteomics, drug vs DMSO, essential: false",−0.3004
O=C(CSc1nc2ccccc2[nH]1)Nc1ccc(Cl)cn1 [IC021313.2],"number of proteins significantly downregulated (log2FC < -0.3), destabilized proteins",,839
same,number of downregulated proteins known to be implicated in KBM7 proliferation (essential for KBM7 viability),,183
same,logFC (IC021313.2/DMSO),"protein AKAP11 (Q9UKA4), essential: false",−0.3004
same,logFC (IC021313.2/DMSO),"protein ALKBH3 (Q96Q83-1), essential: false",−0.3129
same,logFC (IC021313.2/DMSO),"protein ALKBH4 (Q9NXW9-1), essential: false",−0.3111
same,logFC (IC021313.2/DMSO),"protein ATXN7L3B (Q96GX2), essential: false",−0.3111
same,logFC (IC021313.2/DMSO),"protein BMT2 (Q1RMZ1), essential: false",−0.3111
same,logFC (IC021313.2/DMSO),"protein C10orf88 (Q9H8K7), essential: false",−0.3004
same,logFC (IC021313.2/DMSO),"protein CCNC (P24863-1), essential: false",−0.3129
same,logFC (IC021313.2/DMSO),"protein CHMP4B (Q9H444), essential: true",−0.3129
same,logFC (IC021313.2/DMSO),"protein CIT (O14578-4), essential: false",−0.3147
same,logFC (IC021313.2/DMSO),"protein CREB1 (P16220-1), essential: false",−0.3147
same,logFC (IC021313.2/DMSO),"protein CUEDC2 (Q9H467), essential: false",−0.3129
same,logFC (IC021313.2/DMSO),"protein DCUN1D4 (Q92564-3), essential: false",−0.3004
same,logFC (IC021313.2/DMSO),"protein DGCR14 (Q96DF8), essential: true",−0.3129
same,logFC (IC021313.2/DMSO),"protein DSG2 (Q14126), essential: false",−0.3111
same,logFC (IC021313.2/DMSO),"protein EIF4B (P23588-1), essential: false",−0.3129
same,logFC (IC021313.2/DMSO),"protein ENTPD6 (O75354-1), essential: false",−0.3004
same,logFC (IC021313.2/DMSO),"protein EPN1 (Q9Y6I3-2), essential: false",−0.3022
same,logFC (IC021313.2/DMSO),"protein FADS1 (O60427-1), essential: false",−0.3147
same,logFC (IC021313.2/DMSO),"protein FAM122A (Q96E09), essential: true",−0.3022
same,logFC (IC021313.2/DMSO),"protein GTF2H1 (P32780-1), essential: true",−0.3022
same,logFC (IC021313.2/DMSO),"protein GUCY1A3 (Q02108-1), essential: false",−0.3129
same,logFC (IC021313.2/DMSO),"protein KIF15 (Q9NS87-1), essential: false",−0.3022
same,logFC (IC021313.2/DMSO),"protein NCAPD2 (Q15021), essential: true",−0.3094
same,logFC (IC021313.2/DMSO),"protein NDRG3 (Q9UGV2-1), essential: false",−0.3111
same,logFC (IC021313.2/DMSO),"protein NUFIP1 (Q9UHK0), essential: true",−0.3129
same,logFC (IC021313.2/DMSO),"protein PFDN5 (Q99471-1), essential: false",−0.3111
same,logFC (IC021313.2/DMSO),"protein PHF8 (Q9UPP1-1), essential: false",−0.3022
same,logFC (IC021313.2/DMSO),"protein PLSCR1 (O15162-1), essential: false",−0.3111
same,logFC (IC021313.2/DMSO),"protein PO1A (Q8NBT0-1), essential: false",−0.3022
same,logFC (IC021313.2/DMSO),"protein PPIL4 (Q8WUA2), essential: false",−0.3004
same,logFC (IC021313.2/DMSO),"protein PSD4 (Q8NDX1-1), essential: false",−0.3022
same,logFC (IC021313.2/DMSO),"protein PUS3 (Q9BZE2), essential: false",−0.3022
same,logFC (IC021313.2/DMSO),"protein PVR (P15151-1), essential: false",−0.3004
same,logFC (IC021313.2/DMSO),"protein PYM1 (Q9BRP8-1), essential: false",−0.3022
same,logFC (IC021313.2/DMSO),"protein RAD54L (Q92698), essential: false",−0.3004
same,logFC (IC021313.2/DMSO),"protein RASSF5 (Q8WWW0-2), essential: false",−0.3022
same,logFC (IC021313.2/DMSO),"protein RPS17 (P08708), essential: true",−0.3094
same,logFC (IC021313.2/DMSO),"protein SKP2 (Q13309-1), essential: false",−0.3111
same,logFC (IC021313.2/DMSO),"protein SLC10A4 (Q96EP9), essential: false",−0.3111
same,logFC (IC021313.2/DMSO),"protein SLCO4A1 (Q96BD0-1), essential: false",−0.3004
same,logFC (IC021313.2/DMSO),"protein SUV39H1 (O43463-2), essential: false",−0.3004
same,logFC (IC021313.2/DMSO),"protein TANC2 (Q9HCD6-2), essential: false",−0.3129
same,logFC (IC021313.2/DMSO),"protein TFAP4 (Q01664), essential: true",−0.3094
same,logFC (IC021313.2/DMSO),"protein USP12 (O75317), essential: false",−0.3004
same,logFC (IC021313.2/DMSO),"protein WDR76 (Q9H967), essential: false",−0.3004
same,logFC (IC021313.2/DMSO),"protein ZNF770 (Q6IQ21), essential: false",−0.3004
same,logFC (IC021313.2/DMSO),"protein ZWILCH (Q9H900-1), essential: false",−0.3022
